Test results published in publication PMC11220795 (Molecular Pharmaceutics, 2024).

Test: Drug solubility in medium-chain triglycerides (MCT, Miglyol 812 N); SORESOS 96-well assay, miniaturized shake-flask or literature
Settings: decadic logarithm of molar solubility in MCTs (Miglyol 812 N), 24 h at room temperature; no literature source given
Method: The excipient complies with the quality specifications of the European Pharmacopoeia. The solvents used for the ultra-performance liquid chromatography (UPLC) quantification were of UPLC grade.
(b) employing a miniaturized version of the shake-flask method in 2 mL glass vials,[33] or (c) collecting data from the literature.[12],[34] Each of the employed assays involved residual solid-state screenings by powder X-ray diffraction to identify potential solid-state changes during solubility screenings.

| Compound | log10 S [M] |
| --- | --- |
| CN(C(=O)C(C)(C)c1cc(C(F)(F)F)cc(C(F)(F)F)c1)c1cnc(N2CCOCC2)cc1-c1ccccc1Cl [RO0676789] | -1.07 M |
| COc1ccc(-c2ccccc2)c2sc(NC(=O)c3ccc(F)cc3)nc12 [RO0691911] | -1.71 M |
| COc1ccc(N2CCOCC2)c2sc(NC(=O)N3CC[S+]([O-])CC3)nc12 [RO0712616] | -4.84 M |
| COc1ccc(N2CCOCC2)c2sc(NC(=O)c3ccc(F)cc3)nc12 [RO0716689] | -2.41 M |
| COc1ccc(N2CCCCC2)c2sc(NC(=O)c3ccc(F)cc3)nc12 [RO0718883] | -1.84 M |
| COc1ccc(N2CCOCC2)c2sc(NC(=O)c3ccc(C(F)(F)F)cc3)nc12 [RO0720004] | -1.93 M |
| COc1ccc(N2CCOCC2)c2sc(NC(=O)N3CCC(CO)CC3)nc12 [RO0725612] | -4.65 M |
| Cc1cc(F)ccc1-c1cc(N2CCS(=O)(=O)CC2)ncc1N(C)C(=O)C(C)(C)c1cc(C(F)(F)F)cc(C(F)(F)F)c1 [RO0728351] | -2.03 M |
| COc1ccc(N2CCOCC2)c2sc(NC(=O)c3ccnc(CN4CCCC4)c3)nc12 [RO0728617] | -3.00 M |
| COc1ccc(N2CCOCC2)c2sc(NC(=O)N(C)C3CCC(O)CC3)nc12 (stereo not shown) [RO4403289] | -3.39 M |
| Cc1cc(-c2cccc(C3=Nc4cc(C)c(C(F)(F)F)cc4NC(=O)C3)c2)ccn1 [RO4432717] | -2.89 M |
| COc1ccc(N2CCOCC2)c2sc(NC(=O)N3CCC(C)(O)CC3)nc12 [RO4494351] | -3.40 M |
| COc1ccc(C2CCOCC2)c2sc(NC(=O)N(C)C3CCC(O)CC3)nc12 (stereo not shown) [RO4518423] | -2.61 M |
| COc1cc(C(=O)Nc2nc3c(OC)ccc([C@H]4COCCO4)c3s2)ccn1 [RO4545823] | -2.38 M |
| CCO[C@H](Cc1ccc2c(ccn2Cc2nc(-c3ccccc3Cl)oc2C)c1)C(=O)O [RO4552952] | -1.66 M |
| Cc1cc(C#Cc2cn(-c3ccc(F)cc3)c(C)n2)ccn1 [RO4582939] | -1.38 M |
| CCC(CC)CC1(C(=O)Nc2ccccc2SC(=O)C(C)C)CCCCC1 [RO4607381] | -0.41 M |
| Cc1cc(N(C)Cc2sc(-c3ccc(C(F)(F)F)cc3)nc2C)ccc1OCC(=O)O [RO4632615] | -2.28 M |
| COc1ccc(N2CCOCC2)c2sc(NC(=O)N(C)[C@@H]3C[C@H]4CC[C@@H]3O4)nc12 [RO4651862] | -2.04 M |
| Cc1cc(OCc2ccc(-c3ccc(OC(F)(F)F)cc3)nc2)ccc1OC(C)(C)C(=O)O [RO4883572] | -2.52 M |
| CC(C)(C)c1ccc(CN(CCc2cccc(C(F)(F)F)c2)C(=O)c2c(F)c(Cl)cc3cc[nH]c23)cc1 [RO4920902] | -1.55 M |
| CC(C)(C)c1ccc(CN(CCc2ccc(F)c(C(F)(F)F)c2)C(=O)c2c(F)c(Cl)cc3cc[nH]c23)cc1 [RO4920915] | -1.47 M |
| CC(C)(C(=O)NCC(F)(F)C(F)(F)F)C(=O)N[C@@H]1C(=O)Nc2ccccc2-c2ccccc21 [RO4929097] | -2.24 M |
| O=C(Nc1ccc(Cl)cn1)[C@@H]1CN(CC(F)F)C[C@H]1C(=O)Nc1ccc(-n2ccccc2=O)cc1F [RO4934067] | -2.53 M |
| FC(F)c1ncn2c1Cn1ncnc1-c1cc(Br)ccc1-2 [RO4938581] | -2.98 M |
| Cc1ccc(Nc2cncnc2)c(C(=O)Nc2ccn(C)n2)n1 [RO5012841] | -2.35 M |
| COc1ccc(Cl)cc1S(=O)(=O)N1CCOc2ccc(C(=O)Nc3ccc(C(=O)O)cc3)cc21 [RO5014449] | -4.05 M |
| COc1ccc(C)cc1S(=O)(=O)N1CCCc2ccc(C(=O)Nc3ccc(C(=O)O)c(F)c3)cc21 [RO5033672] | -4.19 M |
